From US6583147B1, “Pyrazolopyrimidinone derivatives for the treatment of impotence” (Dong A Pharm Co., Ltd., priority 1998, dated 2003)

How the values were obtained:
rats = assay: Penile erection test using rats; type: in vivo, rat; settings: oral single dose 10 mg/kg in 0.5% methyl cellulose, observed for 2 hours
[1] = target: T1, Phosphodiesterase-5 enzyme (PDE 5) (Homo sapiens, UniProt O76074); assay: Test for phosphodiesterase-5 (PDE 5) activity; type: biochemical; settings: PDE 5 fraction from human corpus cavernosal tissues
T1 construct: separated by HPLC (Mono Q anion exchange column) with concentration gradient of 0-500 mM NaCl to elute PDE isozymes; from tissue; host or cells: human corpus cavernosal tissue

[2] = Acute oral toxicity test in rats; settings: SD, rat, in vivo, 1 g/kg; rats, oral single dose; read-out: lethal dose (LD50) of oral administration

Structure (SMILES) | PEI (penile erection index) (rats) | genital grooming (number of genital groomings) (rats) | IC50 [1] [nM] | LD50 [2] [mg/kg]
CCCc1nn(C)c2c(=O)[nH]c(-c3cc(S(=O)(=O)NC(C)C)ccc3OCC)nc12 [Example 1, 5-[2-ethoxy-5-(isopropylamidosulfonyl)phenyl]-1-methyl-3-propyl-1,6-dihydro-7H-pyrazolo(4,3-d)pyrimidin-7-one] | 366.7 ± 38.5 | 3.0 ± 1.0 | 8.63 | > 1000
CCOc1ccc(S(=O)(=O)NC(C)C)cc1-c1nc2c(CC(C)C)nn(C)c2c(=O)[nH]1 [Example 4] | 133.3 ± 57.7 | 2.3 ± 1.2 |  | 
CCCc1nn(CC)c2c(=O)[nH]c(-c3cc(S(=O)(=O)NC(C)C)ccc3OCC)nc12 [Example 5, 5-[2-ethoxy-5-(isopropylamidosulfonyl)phenyl]-1-ethyl-3-propyl-1,6-dihydro-7H-pyrazolo(4,3-d)pyrimidin-7-one] | 266.7 ± 57.7 | 3.3 ± 1.2 | 19.6 | > 1000
CCCNS(=O)(=O)c1ccc(OCC)c(-c2nc3c(CCC)nn(C)c3c(=O)[nH]2)c1 [Example 7, 5-[2-ethoxy-5-(propylamidosulfonyl)phenyl]-1-methyl-3-propyl-1,6-dihydro-7H-pyrazolo(4,3-d)pyrimidin-7-one] | 200.0 ± 0.0 | 6.7 ± 3.8 | 20.7 | > 1000
CCCNS(=O)(=O)c1ccc(OCC)c(-c2nc3c(CCC)nn(CC)c3c(=O)[nH]2)c1 [Example 8, 5-[2-ethoxy-5-(propylamidosulfonyl)phenyl]-1-ethyl-3-propyl-1,6-dihydro-7H-pyrazolo(4,3-d)pyrimidin-7-one] | 200.0 ± 100.0 | 3.0 ± 1.0 | 25.3 | > 1000
CCCc1nn(C)c2c(=O)[nH]c(-c3cc(S(=O)(=O)NC(C)CC)ccc3OCC)nc12 (centres unmarked) [Example 10, 5-[2-ethoxy-5-(2-butylamidosulfonyl)phenyl]-1-methyl-3-propyl-1,6-dihydro-7H-pyrazolo(4,3-d)pyrimidin-7-one] | 466.7 ± 305.5 | 4.0 ± 1.7 | 3.78 | > 1000
CCCc1nn(C)c2c(=O)[nH]c(-c3cc(S(=O)(=O)NC(CC)CC)ccc3OCC)nc12 [Example 11] | 100 ± 0.0 | 2.7 ± 2.1 |  | 
CCCc1nn(C)c2c(=O)[nH]c(-c3cc(S(=O)(=O)NC(C)(C)C)ccc3OCC)nc12 [Example 12] | 22.2 ± 38.5 | 0.3 ± 0.6 |  | 
CCCc1nn(C)c2c(=O)[nH]c(-c3cc(S(=O)(=O)NC4CC4)ccc3OCC)nc12 [Example 13, 5-[2-ethoxy-5-(cyclopropylamidosulfonyl)phenyl]-1-methyl-3-propyl-1,6-dihydro-7H-pyrazolo(4,3-d)pyrimidin-7-one] | 300.0 ± 100.0 | 4.3 ± 1.2 | 21.7 | > 1000
CCCc1nn(CC)c2c(=O)[nH]c(-c3cc(S(=O)(=O)NC4CC4)ccc3OCC)nc12 [Example 14, 5-[2-ethoxy-5-(cyclopropylamidosulfonyl)phenyl]-1-ethyl-3-propyl-1,6-dihydro-7H-pyrazolo(4,3-d)pyrimidin-7-one] | 233.3 ± 57.7 | 3.0 ± 1.0 | 79.5 | > 1000
CCOc1ccc(S(=O)(=O)NC2CC2)cc1-c1nc2c(CC(C)C)nn(C)c2c(=O)[nH]1 [Example 15] | 111.1 ± 101.8 | 0.7 ± 0.6 |  | 
CCCOc1ccc(S(=O)(=O)NC2CC2)cc1-c1nc2c(CCC)nn(C)c2c(=O)[nH]1 [Example 16] | 100 ± 0 | 1.7 ± 0.6 |  | 
CCCc1nn(C)c2c(=O)[nH]c(-c3cc(S(=O)(=O)NC4CCC4)ccc3OCC)nc12 [Example 17] | 66.7 ± 66.7 | 1.0 ± 1.0 |  | 
CCCc1nn(C)c2c(=O)[nH]c(-c3cc(S(=O)(=O)NC4CCCC4)ccc3OCC)nc12 [Example 18] | 44.4 ± 38.5 | 1.3 ± 0.6 |  | 
CCCc1nn(C)c2c(=O)[nH]c(-c3cc(S(=O)(=O)NC4CCCCC4)ccc3OCC)nc12 [Example 19, 5-[2-ethoxy-5-(cyclohexylamidosulfonyl)phenyl]-1-methyl-3-propyl-1,6-dihydro-7H-pyrazolo(4,3-d)pyrimidin-7-one] | 233.3 ± 57.7 | 5.0 ± 0.0 | 4.98 | > 1000
CCOc1ccc(S(=O)(=O)NC2CCCCC2)cc1-c1nc2c(CC(C)C)nn(C)c2c(=O)[nH]1 [Example 20] | 266.7 ± 57.7 | 2.3 ± 0.6 |  | 
CCCc1nn(C)c2c(=O)[nH]c(-c3cc(S(=O)(=O)NCC4CCCO4)ccc3OCC)nc12 (centres unmarked) [Example 21] | 44.4 ± 38.5 | 2.3 ± 1.5 |  | 

Structure (SMILES) | PEI (penile erection index) (rats) | genital grooming (number of genital groomings) (rats) | IC50 [1] [nM] | LD50 [2] [mg/kg]
CCCOc1ccc(S(=O)(=O)NCc2ccccc2)cc1-c1nc2c(CCC)nn(C)c2c(=O)[nH]1 [Example 23, 5-[2-propyloxy-5-(benzylamidosulfonyl)phenyl]-1-methyl-3-propyl-1,6-dihydro-7H-pyrazolo(4,3-d)pyrimidin-7-one] | 266.7 ± 57.7 | 3.0 ± 1.0 | 12.7 | > 1000
CCCc1nn(CC)c2c(=O)[nH]c(-c3cc(S(=O)(=O)NCc4ccccc4)ccc3OCC)nc12 [Example 24, 5-[2-ethoxy-5-(benzylamidosulfonyl)phenyl]-1-ethyl-3-propyl-1,6-dihydro-7H-pyrazolo(4,3-d)pyrimidin-7-one] | 233.3 ± 230.9 | 2.7 ± 2.9 | 86 | > 1000
CCCc1nn(C)c2c(=O)[nH]c(-c3cc(S(=O)(=O)Nc4ccccc4)ccc3OCC)nc12 [Example 25] | 44.4 ± 38.5 | 2.0 ± 0.0 |  | 
CCCc1nn(C)c2c(=O)[nH]c(-c3cc(S(=O)(=O)Nc4ccc(F)cc4)ccc3OCC)nc12 [Example 26, 5-[2-ethoxy-5-(4-fluorophenylamidosulfonyl)phenyl]-1-methyl-3-propyl-1,6-dihydro-7H-pyrazolo(4,3-d)pyrimidin-7-one] | 133.3 ± 133.3 | 4.0 ± 1.7 | 74.6 | > 1000
CCCc1nn(C)c2c(=O)[nH]c(-c3cc(S(=O)(=O)Nc4ccc(C)cc4)ccc3OCC)nc12 [Example 27] | 66.7 ± 66.7 | 2.7 ± 1.2 |  | 
CCCc1nn(C)c2c(=O)[nH]c(-c3cc(S(=O)(=O)Nc4ccc(C(C)(C)C)cc4)ccc3OCC)nc12 [Example 28, 5-[2-ethoxy-5-(4-t-butylphenylamidosulfonyl)phenyl]-1-methyl-3-propyl-1,6-dihydro-7H-pyrazolo(4,3-d)pyrimidin-7-one] | 300.0 ± 100.0 | 3.0 ± 1.0 | 46.6 | > 1000
CCCc1nn(CC)c2c(=O)[nH]c(-c3cc(S(=O)(=O)Nc4ccc(C(C)(C)C)cc4)ccc3OCC)nc12 [Example 29, 5-[2-ethoxy-5-(4-t-butylphenylamidosulfonyl)phenyl]-1-ethyl-3-propyl-1,6-dihydro-7H-pyrazolo(4,3-d)pyrimidin-7-one] | 233.3 ± 152.8 | 3.0 ± 2.0 | 49.8 | > 1000
CCOc1ccc(S(=O)(=O)Nc2ccc(C(C)(C)C)cc2)cc1-c1nc2c(CC(C)C)nn(C)c2c(=O)[nH]1 [Example 30] | 133.3 ± 57.7 | 2.3 ± 0.6 |  | 
CCCc1nn(C)c2c(=O)[nH]c(-c3cc(S(=O)(=O)Nc4cc(C)cc(C)c4)ccc3OCC)nc12 [Example 32] | 66.7 ± 66.7 | 1.3 ± 1.5 |  | 
CCCc1nn(C)c2c(=O)[nH]c(-c3cc(S(=O)(=O)Nc4ccccn4)ccc3OCC)nc12 [Example 42] | 33.3 ± 57.7 | 1.3 ± 1.5 |  | 
CCCc1nn(C)c2c(=O)[nH]c(-c3cc(S(=O)(=O)NCc4ccncc4)ccc3OCC)nc12 [Example 43] | 11.1 ± 19.3 | 0.7 ± 0.6 |  | 
CCCc1nn(CC)c2c(=O)[nH]c(-c3cc(S(=O)(=O)NCc4ccncc4)ccc3OCC)nc12 [Example 45] | 22.2 ± 38.5 | 0.7 ± 1.2 |  | 
CCCc1nn(C)c2c(=O)[nH]c(-c3cc(S(=O)(=O)NCc4ccccn4)ccc3OCC)nc12 [Example 50] | 44.3 ± 38.5 | 1.0 ± 0.0 |  | 
CCCc1nn(C)c2c(=O)[nH]c(-c3cc(S(=O)(=O)NCC4CCCN4C)ccc3OCC)nc12 (centres unmarked) [Example 55] | 350.0 ± 173.2 | 3.8 ± 1.5 | 103 | 
CCCc1nn(CC)c2c(=O)[nH]c(-c3cc(S(=O)(=O)NCC4CCN(C)C4)ccc3OCC)nc12 (centres unmarked) [Example 61] | 25.0 ± 28.9 | 0.8 ± 0.5 | 93.9 | 
CCCc1nn(C)c2c(=O)[nH]c(-c3cc(S(=O)(=O)NCCC4CCCN4C)ccc3OCC)nc12 (centres unmarked) [Example 67] | 75.0 ± 61.2 | 1.8 ± 1.5 | 63 | 
